# Reference: US20130018062A1, “Pain therapy with metabolism blocked antifolates” (priority 2011, published 2013)
# Columns and labels:
# [1] = Laboratory values (toxicity) of Rheumatoid Arthritis patients on M-Trex; type: in vivo, human; details: M-Trex 7.5 mg per day; for CREATININE / GLUCOSE / SGOT / ALK. PHOSPHAT / SGTP / HEMOGLOB: RA patients; for ALK. PHOSPHAT / SGTP: in U/L (unit assumed); for HEMOGLOB: in g/dL (unit assumed)
# [2] = system: C-Reactive Protein (CRP); test: Plasma CRP levels of patients on therapy with M-Trex for Rheumatoid Arthritis (Example-2); type: in vivo, human; details: arthritic patients taking M-Trex, clinical study by Castaneda and Nair
# Source text: Coronary Heart Disease (CHD), Cardio-vascular diseases (CVD) and Stroke are of the same generic species by virtue of Inflammation being the common underlying cause of their occurrence. In fact an article by the American Heart Association entitled “Inflammation, Heart Disease and Stroke. The role of C-Reactive Protein” stressed that markers of Inflammation are more accurate and reliable predictive factors than total cholesterol levels in humans. [www.americanheart.org/presenter.jhtml?presenter=4648]. The most accurate predictive factor for the incidence of CHD, CVD and stroke is elevated levels of C-Reactive Protein (CRP).
# [3] = Toxicity (maximum tolerated dose, weight loss) in nude mice bearing HCT-8 xenograft; type: in vivo; details: i.v. push daily × 5 in nude mice
# [4] = system: patients with Rheumatoid Arthritis; test: Morning stiffness and swollen joints in patients with Rheumatoid Arthritis treated with M-Trex (Example-6); type: in vivo, human
# Source text: MS (Morning Stiffness); S. Joints (Swollen Joints) were remarkably responsive to M-Trex therapy. Stiffness exacerbates Pain especially in joints by virtue of inflexibility and reduction is blood circulation. Swelling of joints is secondary to inflammation caused by autoimmune response in patients with Rheumatoid Arthritis. […] The initial numbers represents the values at the start of the study before the treatment and the remaining four numbers are values determined during each visit while taking M-Trex medication.
# In joints stiffness (duration measured in minutes as above) is caused by inflammation of the synovium that lines the joint. Inflammation due to bone spurs as in Oesteo-arthritis causes Pain. Thus reduction of stiffness reduces the severity of inflammation and Pain. Abnormal tissue growth characterized by benign and malignant neoplasms cause stiffness due to compression of tissues, interfering with blood flow and irritation of the autonomic nervous system. Metabolism blocked antifolates are shown to be capable of decompression of tissues by interfering with tissue growth as shown in Examples 4, 5 and 6. These examples establish that metabolism blocked antifolates can decompress cancer tissues and ameliorate cancer pain.
# [5] = system: A549/ATCC (NSCLC); test: Growth inhibition of human tumor cells in culture (NCI); type: cell-based
# Source text: (§1) The preceding data collected at the National Cancer Institute summarize the ability of M-Trex to inhibit 50% of the growth of selected tumor cells in culture. The values are expressed as Log10 GI50 values all of which are lower than 10^−8M. In the same table a comparison is made of the respective values of TGI (Total Growth Inhibition) for M-Trex and MTX. […] In addition, the Log10 GI50 values of M-Trex was lower than −8.00 for the following cell lines: NSCLC, A549/ATCC and NCI H23; Colon Cancer, HCT 116, HCT 29 and SW 620; CNS Cancer, SF 268; Melanoma M 14 and UACC 62; Ovarian Cancer, OVCAR-8; Renal Cancer, ACHN, CAKI-1, SN 12C, and UO 31; Prostate Cancer, PC 3 and Breast cancer, MDA-MB-435 and MDA-N. The MG_MID value of MTX for all 49 human tumor cell lines evaluated at NCI-DTP program was −7.05. […] The tumors and sarcomas are solid while leukemia and lymphoma are liquid tumors.
# [6] = system: ACHN (Renal Cancer); test: as above; type: cell-based
# Source text: as §1
# [7] = system: CAKI-1 (Renal Cancer); test: as above; type: cell-based
# Source text: as §1
# [8] = system: CCRF-CEM (Leukemia); test: as above; type: cell-based
# Source text: as §1
# [9] = system: HCT 29 (Colon Cancer); test: as above; type: cell-based
# Source text: as §1
# [10] = system: K562 (Leukemia); test: as above; type: cell-based; details: logarithmic value
# Source text: as §1
# [11] = system: MCF-7 (Breast Cancer); test: as above; type: cell-based; details: logarithmic value
# Source text: as §1
# [12] = system: MCF7-ADR-RES (Breast Cancer); test: as above; type: cell-based
# Source text: as §1
# [13] = system: MDA-MB-435 (Breast cancer); test: as above; type: cell-based
# Source text: as §1
# [14] = system: MDA-N (Breast cancer); test: as above; type: cell-based
# Source text: as §1
# [15] = system: PC 3 (Prostate Cancer); test: as above; type: cell-based
# Source text: as §1
# [16] = system: SF 539 (CNS Cancer); test: as above; type: cell-based; details: logarithmic value
# Source text: as §1
# [17] = system: UO 31 (Renal Cancer); test: as above; type: cell-based
# Source text: as §1
# [18] = system: Allergic Rabbits; details: allergen induced; cited from earlier work
# [19] = first visit while taking M-Trex
# [20] = fourth visit while taking M-Trex
# [21] = second visit while taking M-Trex
# [22] = start of the study before the treatment
# [23] = third visit while taking M-Trex
smiles,measurement,setting,value
"C=C(CC(NC(=O)c1ccc(CCc2ccc3nc(N)nc(N)c3c2)cc1)C(=O)O)C(=O)O (stereo not shown) [M-Trex, 4′-methylene-5,8-10-trideazaaminopterin]",CREATININE,[1]; VISIT 2,0.79 mg/dL
same,GLUCOSE,[1]; VISIT 2,83.8 mg/dL
same,SGOT,[1]; VISIT 2,14.6 U/L
same,ALK. PHOSPHAT,[1]; VISIT 2,107.75
same,SGTP,[1]; VISIT 2,17.75
same,HEMOGLOB,[1]; VISIT 2,11.77
same,CREATININE,[1]; VISIT 3,0.95 mg/dL
same,GLUCOSE,[1]; VISIT 3,95 mg/dL
same,SGOT,[1]; VISIT 3,16 U/L
same,ALK. PHOSPHAT,[1]; VISIT 3,86
same,SGTP,[1]; VISIT 3,17
same,HEMOGLOB,[1]; VISIT 3,12.43
same,CREATININE,[1]; VISIT 4,0.85 mg/dL
same,GLUCOSE,[1]; VISIT 4,87.5 mg/dL
same,SGOT,[1]; VISIT 4,16 U/L
same,ALK. PHOSPHAT,[1]; VISIT 4,89.3
same,SGTP,[1]; VISIT 4,25
same,HEMOGLOB,[1]; VISIT 4,12.18
same,CREATININE,[1]; VISIT 5,0.85 mg/dL
same,GLUCOSE,[1]; VISIT 5,88.1 mg/dL
same,SGOT,[1]; VISIT 5,17.3 U/L
same,ALK. PHOSPHAT,[1]; VISIT 5,87.1
same,SGTP,[1]; VISIT 5,20
same,HEMOGLOB,[1]; VISIT 5,12.26
same,CREATININE,[1]; VISIT 6,0.92 mg/dL
same,GLUCOSE,[1]; VISIT 6,92.4 mg/dL
same,SGOT,[1]; VISIT 6,14.9 U/L
same,ALK. PHOSPHAT,[1]; VISIT 6,85.42
same,SGTP,[1]; VISIT 6,18.21
same,HEMOGLOB,[1]; VISIT 6,12.56
same,CREATININE,[1]; VISIT 7,0.84 mg/dL
same,GLUCOSE,[1]; VISIT 7,90.3 mg/dL
same,SGOT,[1]; VISIT 7,15.2 U/L
same,ALK. PHOSPHAT,[1]; VISIT 7,86.5
same,SGTP,[1]; VISIT 7,18
same,HEMOGLOB,[1]; VISIT 7,12.48
same,Toxicity according to laboratory values,[1]; patients with Rheumatoid Arthritis,not associated with any measurable toxicity
same,Change of CRP levels (in words),[2],significant and consistent reduction
same,Maximum Tolerated dose,[3],M-Trex (4.0 mg/kg/day)
same,"MS (Morning Stiffness), duration",[4]; [19],26′ minutes
same,S. Joints (number of Swollen Joints),[4]; [19],5.6
same,"MS (Morning Stiffness), duration",[4]; [20],14′ minutes
same,S. Joints (number of Swollen Joints),[4]; [20],2.9
same,"MS (Morning Stiffness), duration",[4]; [21],22′ minutes
same,S. Joints (number of Swollen Joints),[4]; [21],3.5
same,"MS (Morning Stiffness), duration",[4]; [22],99′ minutes
same,S. Joints (number of Swollen Joints),[4]; [22],12.5
same,"MS (Morning Stiffness), duration",[4]; [23],20′ minutes
same,S. Joints (number of Swollen Joints),[4]; [23],3.0
same,Log10 GI50,[5],lower than −8.00
same,Log10 GI50,[6],lower than −8.00
same,Log10 GI50,[7],lower than −8.00
same,TGI (Total Growth Inhibition),[8]; logarithmic value,<−8.00
same,Log10 GI50,[8]; value is Log10 of GI50,<−8.00 M
same,Log10 GI50,[9],lower than −8.00
same,TGI (Total Growth Inhibition),[10],<−8.00
same,TGI (Total Growth Inhibition),[11],−6.32
same,TGI (Total Growth Inhibition),[12]; logarithmic value,−7.26
same,Log10 GI50,[12]; value is Log10 of GI50,<−8.00 M
same,Log10 GI50,[13],lower than −8.00
same,Log10 GI50,[14],lower than −8.00
same,Log10 GI50,[15],lower than −8.00
same,TGI (Total Growth Inhibition),[16],−6.3
same,Log10 GI50,[17],lower than −8.00
same,Asthmatic Response Early,[18],52
same,Asthmatic Response Late,[18],58
same,BHR (Bronchial Hyper-Responsiveness),[18],47
